The text below walks through data of US10266526B2, “Substituted 1,2,3-triazoles as SMYD inhibitors for treating cancer” (EPIZYME, INC., priority 2014, dated 2019).

A value given as a limit tells only on which side of the number the result lay.

Usually IC50 stands for the concentration that inhibits the measured activity by half.

Sequence of SMYD3 (Q9H7B4 whole entry): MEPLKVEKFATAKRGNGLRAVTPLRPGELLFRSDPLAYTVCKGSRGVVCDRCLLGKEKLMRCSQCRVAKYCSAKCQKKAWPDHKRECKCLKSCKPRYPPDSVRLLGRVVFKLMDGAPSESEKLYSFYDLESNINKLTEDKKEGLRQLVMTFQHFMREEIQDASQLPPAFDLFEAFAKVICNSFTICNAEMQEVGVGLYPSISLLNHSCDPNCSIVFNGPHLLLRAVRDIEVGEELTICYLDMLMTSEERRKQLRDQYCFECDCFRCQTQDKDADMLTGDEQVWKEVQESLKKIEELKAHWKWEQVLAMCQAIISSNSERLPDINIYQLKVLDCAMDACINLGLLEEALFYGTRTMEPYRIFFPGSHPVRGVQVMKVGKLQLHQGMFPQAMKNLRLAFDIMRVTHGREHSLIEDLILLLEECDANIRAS

The experiment concerns the target SMYD3 (Homo sapiens (Human), UniProt Q9H7B4). As to the kind of experiment: SMYD3 biochemical assay (SMYD3 enzyme assay on MEKK2 protein substrate, 3H-SAM scintillation proximity assay). The note with it: read-out: SMYD3 Biochem IC50 (μM)*. In a few lines:
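Native full-length human SMYD3, expressed in E. coli, was preincubated with compound for 30 min at room temperature in 25 mM Tris-Cl pH 8.0, 1 mM TCEP, 0.005% BSG and 0.005% Tween 20. ³H-SAM plus GST-MEKK2 then started the reaction. It was stopped with unlabeled SAM (100 uM final), and methylated MEKK2 was read by SPA.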
In the case of `C[C@H](N)C(=O)N1CCC(F)(CNC(=O)c2ccc3c(c2)CC(=O)N3)CC1` [compound 113, N-((1-(L-alanyl)-4-fluoropiperidin-4-yl)methyl)-2-oxoindoline-5-carboxamide], the half-maximal inhibitory concentration (IC50) came out at 3.86 µM.
For `C[C@@H](N)C(=O)NCCCCNC(=O)c1ccc2c(c1)CC(=O)N2` [compound 114, (R)-N-(4-(2-aminopropanamido)butyl)-2-oxoindoline-5-carboxamide], the IC50 came out at 22.3 µM.
`N[C@H]1CC[C@H](NC(=O)c2cccc3c2OCC(=O)N3)CC1` [compound 115, N-((1r,4r)-4-aminocyclohexyl)-3-oxo-3,4-dihydro-2H-benzo[b][1,4]oxazine-8-carboxamide]: the IC50 worked out at 61.2 µM.
In the case of `N[C@H]1CC[C@H](NC(=O)c2cncc(Br)c2)CC1` [compound 116, N-((1r,4r)-4-aminocyclohexyl)-5-bromonicotinamide], the IC50 stood at 51 µM.
On to `N[C@H]1CC[C@H](NC(=O)c2cncc(Cl)c2)CC1` [compound 117, N-((1r,4r)-4-aminocyclohexyl)-5-chloronicotinamide], for which the IC50 came to 87 µM.
`N[C@H]1CC[C@H](NC(=O)c2ccc3ncsc3c2)CC1` [compound 118, N-((1r,4r)-4-aminocyclohexyl)benzo[d]thiazole-6-carboxamide]: the IC50 turned out to be 139 µM.
The value for `N[C@H]1CC[C@H](NC(=O)c2ccc3ccc(O)nc3c2)CC1` [compound 119, N-((1r,4r)-4-aminocyclohexyl)-2-hydroxyquinoline-7-carboxamide] was 116 µM.
With `CC(NC(=O)c1ccc2ccc(O)nc2c1)C1CCN(C(=O)[C@H](C)N)CC1` (stereo partly drawn) [compound 120, N-(1-(1-(L-alanyl)piperidin-4-yl)ethyl)-2-hydroxyquinoline-7-carboxamide], the IC50 is 86.9 µM.
Take `CC1(CNC(=O)c2ccc3c(c2)CC(=O)N3)CCNCC1` [compound 121, N-((4-methylpiperidin-4-yl)methyl)-2-oxoindoline-5-carboxamide]: the IC50 worked out at 65.7 µM.
For the compound `CCOC(=O)C(NC(=O)c1ccc2c(c1)CC(=O)N2)C1CCNCC1` (centres unmarked) [compound 122, ethyl 2-(2-oxoindoline-5-carboxamido)-2-(piperidin-4-yl)acetate], the IC50 was determined as 42.3 µM.
`Nc1ccc(C(=O)N[C@H]2CC[C@H](N)CC2)cn1` [compound 123, 6-amino-N-((1r,4r)-4-aminocyclohexyl)nicotinamide]: the IC50 worked out at 108 µM.
The value for `N[C@H]1CC[C@H](NC(=O)c2cc(-n3cnnc3)ccc2Cl)CC1` [compound 126, N-((1r,4r)-4-aminocyclohexyl)-2-chloro-5-(4H-1,2,4-triazol-4-yl)benzamide] was 32 µM; that for `N[C@H]1CC[C@H](NC(=O)c2nnc[nH]2)CC1` [compound 127, N-((1r,4r)-4-aminocyclohexyl)-4H-1,2,4-triazole-3-carboxamide] was 16.4 µM; that for `N[C@H]1CC[C@H](NC(=O)Cc2cccnc2)CC1` [compound 129, N-((1r,4r)-4-aminocyclohexyl)-2-(pyridin-3-yl)acetamide] was more than 100 µM.
`NCCC(=O)NC1CCC(NC(=O)c2ccc3c(c2)CC(=O)N3)CC1` (centres unmarked) [compound 130, N-(4-(3-aminopropanamido)cyclohexyl)-2-oxoindoline-5-carboxamide]: the IC50 is 0.29 µM.
Turning to `CCOC(=O)C1(CNC(=O)c2ccc3c(c2)CC(=O)N3)CCNCC1` [compound 131, ethyl 4-((2-oxoindoline-5-carboxamido)methyl)piperidine-4-carboxylate], the IC50 turned out to be 56.3 µM.
As for `CCOC(=O)C1(CNC(=O)c2ccc3c(c2)CC(=O)N3)CCN(C(=O)[C@H](C)N)CC1` [compound 132, ethyl 1-(L-alanyl)-4-((2-oxoindoline-5-carboxamido)methyl)piperidine-4-carboxylate], the concentration for half-maximal inhibition (IC50) stood at 0.94 µM.
Consider `C[C@@H](N)C(=O)N1CC[C@@H](CNC(=O)c2ccc3c(c2)CC(=O)N3)C1` [compound 133, N-(((S)-1-(D-alanyl)pyrrolidin-3-yl)methyl)-2-oxoindoline-5-carboxamide], for which the concentration for half-maximal inhibition (IC50) was 10.7 µM.
Take `C[C@H](N)C(=O)N1CC[C@@H](CNC(=O)c2ccc3c(c2)CC(=O)N3)C1` [compound 134, N-(((S)-1-(L-alanyl)pyrrolidin-3-yl)methyl)-2-oxoindoline-5-carboxamide]: the IC50 stood at 10.2 µM.
In the case of `C[C@H](N)C(=O)N1CC[C@H](CNC(=O)c2ccc3c(c2)CC(=O)N3)C1` [compound 135, N-(((R)-1-(L-alanyl)pyrrolidin-3-yl)methyl)-2-oxoindoline-5-carboxamide], the IC50 worked out at 13.6 µM.
For the compound `Cc1nc(-c2ccc(C(=O)N[C@H]3CC[C@H](NC(=O)CCN)CC3)cc2)no1` [compound 136, N-((1r,4r)-4-(3-aminopropanamido)cyclohexyl)-4-(5-methyl-1,2,4-oxadiazol-3-yl)benzamide], the IC50 is more than 100 µM.
`Cc1nc(-c2ccc(C(=O)N[C@H]3CC[C@H](N)CC3)cc2)no1` [compound 137, N-((1r,4r)-4-aminocyclohexyl)-4-(5-methyl-1,2,4-oxadiazol-3-yl)benzamide]: the half-maximal inhibitory concentration (IC50) turned out to be 46.6 µM.
With `CC(NC(=O)c1ccncc1)C1CCN(C(=O)[C@H](C)N)CC1` (stereo partly drawn) [compound 138, N-(1-(1-(L-alanyl)piperidin-4-yl)ethyl)isonicotinamide] the figure was more than 100 µM.
As for `NCCC(=O)N[C@H]1CC[C@H](NC(=O)c2ccncc2)CC1` [compound 139, N-((1r,4r)-4-(3-aminopropanamido)cyclohexyl)isonicotinamide], the IC50 was more than 100 µM.
Turning to `N[C@H]1CC[C@H](NC(=O)c2ccncc2)CC1` [compound 140, N-((1r,4r)-4-aminocyclohexyl)isonicotinamide], the IC50 is more than 100 µM.
With `CC(NC(=O)c1cccnc1)C1CCN(C(=O)[C@H](C)N)CC1` (stereo partly drawn) [compound 141, N-(1-(1-(L-alanyl)piperidin-4-yl)ethyl)nicotinamide] the figure was more than 100 µM; with `NCCC(=O)N[C@H]1CC[C@H](NC(=O)c2cccnc2)CC1` [compound 142, N-((1r,4r)-4-(3-aminopropanamido)cyclohexyl)nicotinamide], more than 100 µM; with `N[C@H]1CC[C@H](NC(=O)c2cccnc2)CC1` [compound 143, N-((1r,4r)-4-aminocyclohexyl)nicotinamide], more than 100 µM.
With `CC(NC(=O)c1ncccn1)C1CCN(C(=O)[C@H](C)N)CC1` (stereo partly drawn) [compound 144, N-(1-(1-(L-alanyl)piperidin-4-yl)ethyl)pyrimidine-2-carboxamide], the IC50 is more than 100 µM.
As for `NCCC(=O)N[C@H]1CC[C@H](NC(=O)c2ncccn2)CC1` [compound 145, N-((1r,4r)-4-(3-aminopropanamido)cyclohexyl)pyrimidine-2-carboxamide], the IC50 was more than 100 µM.
In the case of `CC(NC(=O)c1ccc2c(c1)OCO2)C1CCN(C(=O)[C@H](C)N)CC1` (stereo partly drawn) [compound 146, N-(1-(1-(L-alanyl)piperidin-4-yl)ethyl)benzo[d][1,3]dioxole-5-carboxamide], the IC50 was more than 100 µM.
Regarding `NCCC(=O)N[C@H]1CC[C@H](NC(=O)c2ccc3c(c2)OCO3)CC1` [compound 147, N-((1r,4r)-4-(3-aminopropanamido)cyclohexyl)benzo[d][1,3]dioxole-5-carboxamide], the IC50 stood at 98.2 µM.
Consider `N[C@H]1CC[C@H](NC(=O)c2ccc3c(c2)OCO3)CC1` [compound 148, N-((1r,4r)-4-aminocyclohexyl)benzo[d][1,3]dioxole-5-carboxamide], for which the IC50 is more than 100 µM.
Regarding `CC(NC(=O)c1cccc(S(C)(=O)=O)c1)C1CCN(C(=O)[C@H](C)N)CC1` (stereo partly drawn) [compound 149, N-(1-(1-(L-alanyl)piperidin-4-yl)ethyl)-3-(methylsulfonyl)benzamide], the IC50 was more than 100 µM.
With `CS(=O)(=O)c1cccc(C(=O)N[C@H]2CC[C@H](NC(=O)CCN)CC2)c1` [compound 150, N-((1r,4r)-4-(3-aminopropanamido)cyclohexyl)-3-(methylsulfonyl)benzamide] the figure was more than 100 µM.
With `CS(=O)(=O)c1cccc(C(=O)N[C@H]2CC[C@H](N)CC2)c1` [compound 151, N-((1r,4r)-4-aminocyclohexyl)-3-(methylsulfonyl)benzamide] the figure was more than 100 µM.
On to `NCCC(=O)N[C@H]1CC[C@H](NC(=O)c2nccnc2N)CC1` [compound 152, 3-amino-N-((1r,4r)-4-(3-aminopropanamido)cyclohexyl)pyrazine-2-carboxamide], for which the IC50 was more than 100 µM.
As to `Nc1nccnc1C(=O)N[C@H]1CC[C@H](N)CC1` [compound 153, 3-amino-N-((1r,4r)-4-aminocyclohexyl)pyrazine-2-carboxamide], the concentration for half-maximal inhibition (IC50) is more than 100 µM.
`NCCC(=O)N[C@H]1CC[C@H](NC(=O)c2ccc(-c3ccccc3)cc2)CC1` [compound 154, N-((1r,4r)-4-(3-aminopropanamido)cyclohexyl)-[1,1′-biphenyl]-4-carboxamide]: the IC50 is 37.3 µM.
With `N[C@H]1CC[C@H](NC(=O)c2ccc(-c3ccccc3)cc2)CC1` [compound 155, N-((1r,4r)-4-aminocyclohexyl)-[1,1′-biphenyl]-4-carboxamide] the figure was 79.2 µM; with `NCCC(=O)N[C@H]1CC[C@H](NC(=O)c2ccc(S(N)(=O)=O)cc2)CC1` [compound 156, N-((1r,4r)-4-(3-aminopropanamido)cyclohexyl)-4-sulfamoylbenzamide], more than 100 µM.
With `CC(NC(=O)c1cncc(F)c1)C1CCN(C(=O)[C@H](C)N)CC1` (stereo partly drawn) [compound 157, N-(1-(1-(L-alanyl)piperidin-4-yl)ethyl)-5-fluoronicotinamide] the figure was more than 100 µM.
On to `NCCC(=O)N[C@H]1CC[C@H](NC(=O)c2cncc(F)c2)CC1` [compound 158, N-((1r,4r)-4-(3-aminopropanamido)cyclohexyl)-5-fluoronicotinamide], for which the IC50 is more than 100 µM.
In the case of `N[C@H]1CC[C@H](NC(=O)c2cncc(F)c2)CC1` [compound 159, N-((1r,4r)-4-aminocyclohexyl)-5-fluoronicotinamide], the IC50 was more than 100 µM.
